From ChEMBL document CHEMBL2062419, “Synthesis and antiviral activities of hexadecyloxypropyl prodrugs of acyclic nucleoside phosphonates containing guanine or hypoxanthine and a (S)-HPMP or PEE acyclic moiety” (Eur J Med Chem, 2012)
pEC50: −log10 of the molar value. The source made the active and inactive calls. No cut-off for these calls is given here.

Legend:
[1] = Selectivity index, ratio of cytotoxic CC50 for HEL cells to EC50 for HSV1 KOS
[2] = Selectivity index, ratio of cytotoxic CC50 for HEL cells to EC50 for ACV resistant HSV1 KOS
[3] = test system: Respiratory syncytial virus; assay: Antiviral activity against Respiratory syncytial virus Long by viral CPE assay; format: functional, organism-based
[4] = Selectivity index, ratio of cytotoxic CC50 for HEL cells to EC50 for HCMV AD169
Human alphaherpesvirus 1 [5] = assay: Antiviral activity against HSV1 KOS infected in HEL cells by viral CPE assay; format: functional, organism-based; conditions: Human alphaherpesvirus 1, KOS
[6] = Selectivity index, ratio of cytotoxic CC50 for HEL cells to EC50 for VZV 07/01
Sindbis virus = assay: Antiviral activity against Sindbis virus by viral CPE assay; format: functional, organism-based
HEL = assay: Cytotoxicity against HEL cells assessed as effect on cell growth incubated for 3 days by Coulter counter assay; format: cell-based; conditions: human, 72 h
Coxsackievirus B4 = assay: Antiviral activity against Human coxsackievirus B4 by viral CPE assay; format: functional, organism-based
[7] = Selectivity index, ratio of cytotoxic CC50 for HEL cells to EC50 for VZV YS/R
Punta Toro virus = assay: Antiviral activity against Punta Toro virus by viral CPE assay; format: functional, organism-based
Human alphaherpesvirus 3 [8] = assay: Antiviral activity against thymidine kinase negative VZV 07/01 infected in HEL cells by plaque formation assay; format: functional, organism-based; conditions: Human alphaherpesvirus 3, 07/01, HEL
Human alphaherpesvirus 3 [9] = assay: Antiviral activity against thymidine kinase negative VZV YS/R infected in HEL cells by plaque formation assay; format: functional, organism-based; conditions: Human alphaherpesvirus 3, YS/R
[10] = Selectivity index, ratio of cytotoxic CC50 for HEL cells to EC50 for VZV Oka
[11] = Cytotoxicity against HEL cells assessed as effect on cell morphology incubated for 3 days by microscopy; format: cell-based; conditions: human
Felid alphaherpesvirus 1 = assay: Antiviral activity against Feline herpesvirus infected in CRFK cells by viral CPE assay; format: functional, organism-based; conditions: Felid alphaherpesvirus 1, CRFK
Human alphaherpesvirus 3 [12] = assay: Antiviral activity against thymidine kinase positive VZV OKa infected in HEL cells by plaque formation assay; format: functional, cell-based, Human herpesvirus 3 strain Oka vaccine; conditions: Human alphaherpesvirus 3, OKa
Human betaherpesvirus 5 [13] = assay: Antiviral activity against HCMV Davis infected in HEL cells by viral CPE assay; format: functional, organism-based; conditions: Human betaherpesvirus 5, Davis
[14] = Selectivity index, ratio of cytotoxic CC50 for HEL cells to EC50 for HCMV Davis
[15] = test system: Human immunodeficiency virus 2; assay: Antiviral activity against HIV2 ROD infected in human CEM cells assessed as reduction in virus-induced CEM giant cell formation incubated for 4 days at 37 degC by microscopy; format: functional, organism-based; conditions: ISOLATE ROD, CCRF-CEM
[16] = test system: Mammalian orthoreovirus 1; assay: Antiviral activity against Reovirus 1 by viral CPE assay; format: functional, organism-based
[17] = Selectivity index, ratio of cytotoxic CC50 for HEL cells to EC50 for Vaccinia virus Lederie; format: toxicity, cell-based; conditions: human, read-out: Ratio CC50/EC50
[18] = test system: Vesicular stomatitis virus; assay: Antiviral activity against VSV by viral CPE assay; format: functional, organism-based
[19] = Selectivity index, ratio of cytotoxic CC50 for HEL cells to EC50 for VZV YS
[20] = Selectivity index, ratio of cytotoxic CC50 for HEL cells to EC50 for Feline herpesvirus; format: toxicity, cell-based; conditions: human, read-out: Ratio CC50/EC50
Human respirovirus 3 = assay: Antiviral activity against Human parainfluenza virus 3 by viral CPE assay; format: functional, organism-based
Human alphaherpesvirus 2 = assay: Antiviral activity against HSV2 G infected in HEL cells by viral CPE assay; format: functional, organism-based; conditions: Human alphaherpesvirus 2, strain G
Human betaherpesvirus 5 [21] = assay: Antiviral activity against HCMV AD169 infected in HEL cells by viral CPE assay; format: functional, organism-based; conditions: Human betaherpesvirus 5, AD169, HEL
[22] = test system: Human immunodeficiency virus 1; assay: Antiviral activity against HIV1 3B infected in human CEM cells assessed as reduction in virus-induced CEM giant cell formation incubated for 4 days at 37 degC by microscopy; format: functional, organism-based; conditions: CCRF-CEM
Human alphaherpesvirus 3 [23] = assay: Antiviral activity against thymidine kinase positive VZV YS infected in HEL cells by plaque formation assay; format: functional, organism-based; conditions: Human alphaherpesvirus 3, YS
Vaccinia virus = assay: Antiviral activity against Vaccinia virus Lederie infected in HEL cells by viral CPE assay; format: functional, organism-based; conditions: Orthopoxvirus vaccinia
Human alphaherpesvirus 1 [24] = assay: Antiviral activity against thymidine kinase negative and ACV resistant HSV1 KOS infected in HEL cells by viral CPE assay; format: functional, organism-based; conditions: Human alphaherpesvirus 1, KOS
[25] = Selectivity index, ratio of cytotoxic CC50 for HEL cells to EC50 for HSV2 G

## CCCCCCCCCCCCCCCCOCCCOP1(=O)CO[C@@H](Cn2cnc3c(=O)[nH]c(N)nc32)CO1 (mixture of isomers)
[1]
  Ratio CC50/EC50: 559
[2]
  Ratio CC50/EC50: 211
[3]
  Activity: inactive
[4]
  Ratio CC50/EC50: 3800
Human alphaherpesvirus 1 [5]
  pEC50: 7.47
[6]
  Ratio CC50/EC50: 3800
Sindbis virus
  Activity: inactive
HEL
  CC50: 19000 nM
Coxsackievirus B4
  Activity: inactive
[7]
  Ratio CC50/EC50: 3800
Punta Toro virus
  Activity: inactive
Human alphaherpesvirus 3 [8]
  pEC50: 8.30
Human alphaherpesvirus 3 [9]
  pEC50: 8.30
[10]
  Ratio CC50/EC50: 2700
[11]
  MCC at 72 h: ≥ 171 µM
Felid alphaherpesvirus 1
  pEC50: 6.37
Human alphaherpesvirus 3 [12]
  pEC50: 8.15
Human betaherpesvirus 5 [13]
  pEC50: 8.70
[14]
  Ratio CC50/EC50: 9500
[15]
  Activity: inactive
[16]
  Activity: inactive
[17]
  selectivity ratio: 146
[18]
  Activity: inactive
[19]
  Ratio CC50/EC50: 19000
[20]
  selectivity ratio: 398
Human respirovirus 3
  Activity: inactive
Human alphaherpesvirus 2
  pEC50: 7.10
Human betaherpesvirus 5 [21]
  pEC50: 8.30
[22]
  Activity: inactive
Human alphaherpesvirus 3 [23]
  pEC50: 9.00
Vaccinia virus
  pEC50: 6.89
Human alphaherpesvirus 1 [24]
  pEC50: 7.05
[25]
  Ratio CC50/EC50: 238

## Nc1nc2c(ncn2C[C@H]2COP(=O)(O)CO2)c(=O)[nH]1
[1]
  Ratio CC50/EC50: 26
[2]
  Ratio CC50/EC50: 34
[4]
  Ratio CC50/EC50: 11
Human alphaherpesvirus 1 [5]
  pEC50: 6.18
[6]
  Ratio CC50/EC50: 74
HEL
  CC50: 17000 nM
Human alphaherpesvirus 3 [8]
  pEC50: 6.64
[10]
  Ratio CC50/EC50: 170
[11]
  MCC at 72 h: > 100 µM
Felid alphaherpesvirus 1
  pEC50: 6.05
Human alphaherpesvirus 3 [12]
  pEC50: 7.00
Human betaherpesvirus 5 [13]
  pEC50: 5.80
[14]
  Ratio CC50/EC50: 11
[17]
  selectivity ratio: 17
[20]
  selectivity ratio: 96
Human alphaherpesvirus 2
  pEC50: 6.18
Human betaherpesvirus 5 [21]
  pEC50: 5.82
Vaccinia virus
  pEC50: 6.00
Human alphaherpesvirus 1 [24]
  pEC50: 6.30
[25]
  Ratio CC50/EC50: 26

## O=c1[nH]c(=O)n([C@H]2C[C@H](O)[C@@H](CO)O2)cc1/C=C/Br [BRIVUDINE]
Human alphaherpesvirus 1 [5]
  pEC50: 7.42
HEL
  CC50: 347000 nM
Human alphaherpesvirus 3 [8]
  pEC50: 4.28
Human alphaherpesvirus 3 [9]
  pEC50: ≤ 3.92
[11]
  MCC at 72 h: > 300 µM
Human alphaherpesvirus 2
  pEC50: 3.98
Human alphaherpesvirus 3 [23]
  pEC50: 8.22
Human alphaherpesvirus 1 [24]
  pEC50: ≤ 3.74

## Nc1nc2c(ncn2C[C@@H](CO)OCP(=O)(O)O)c(=O)[nH]1
[1]
  Ratio CC50/EC50: 50
[2]
  Ratio CC50/EC50: 50
[4]
  Ratio CC50/EC50: 22
Human alphaherpesvirus 1 [5]
  pEC50: 6.11
[6]
  Ratio CC50/EC50: 186
HEL
  CC50: 39000 nM
Human alphaherpesvirus 3 [8]
  pEC50: 6.68
[10]
  Ratio CC50/EC50: 70
[11]
  MCC at 72 h: > 100 µM
Felid alphaherpesvirus 1
  pEC50: 6.14
Human alphaherpesvirus 3 [12]
  pEC50: 6.25
Human betaherpesvirus 5 [13]
  pEC50: 5.82
[14]
  Ratio CC50/EC50: 26
[17]
  selectivity ratio: 35
[20]
  selectivity ratio: 157
Human alphaherpesvirus 2
  pEC50: 6.11
Human betaherpesvirus 5 [21]
  pEC50: 5.74
Vaccinia virus
  pEC50: 5.96
Human alphaherpesvirus 1 [24]
  pEC50: 6.11
[25]
  Ratio CC50/EC50: 50

## CCCCCCCCCCCCCCCCOCCCOP(=O)(O)CCOCCn1cnc2c(=O)[nH]c(N)nc21
[1]
  Ratio CC50/EC50: 19
[2]
  Ratio CC50/EC50: 9
[3]
  Activity: inactive
[4]
  Ratio CC50/EC50: 200
Human alphaherpesvirus 1 [5]
  pEC50: 5.86
[6]
  Ratio CC50/EC50: 87
Sindbis virus
  Activity: inactive
HEL
  CC50: 26000 nM
Coxsackievirus B4
  Activity: inactive
Punta Toro virus
  Activity: inactive
Human alphaherpesvirus 3 [8]
  pEC50: 6.52
[10]
  Ratio CC50/EC50: 186
[11]
  MCC at 72 h: ≥ 34 µM
Felid alphaherpesvirus 1
  pEC50: < 3.77
Human alphaherpesvirus 3 [12]
  pEC50: 6.85
Human betaherpesvirus 5 [13]
  pEC50: 7.22
[14]
  Ratio CC50/EC50: 433
[15]
  Activity: inactive
[16]
  Activity: inactive
[17]
  selectivity ratio: < 1
[18]
  Activity: inactive
[19]
  Ratio CC50/EC50: 137
Human respirovirus 3
  Activity: inactive
Human alphaherpesvirus 2
  pEC50: 5.72
Human betaherpesvirus 5 [21]
  pEC50: 6.89
[22]
  Activity: inactive
Human alphaherpesvirus 3 [23]
  pEC50: 6.72
Vaccinia virus
  pEC50: ≤ 4.47
Human alphaherpesvirus 1 [24]
  pEC50: 5.55
[25]
  Ratio CC50/EC50: 14

## CCCCCCCCCCCCCCCCOCCCOP(=O)(CO[C@H](CO)Cn1cnc2c(=O)[nH]c(N)nc21)OCCCOCCCCCCCCCCCCCCCC
[1]
  Ratio CC50/EC50: >9
[2]
  Ratio CC50/EC50: >4
[3]
  Activity: inactive
[4]
  Ratio CC50/EC50: >9
Human alphaherpesvirus 1 [5]
  pEC50: 4.92
[6]
  Ratio CC50/EC50: >81
Sindbis virus
  Activity: inactive
HEL
  CC50: > 113000 nM
Coxsackievirus B4
  Activity: inactive
[7]
  Ratio CC50/EC50: >57
Punta Toro virus
  Activity: inactive
Human alphaherpesvirus 3 [8]
  pEC50: 5.85
Human alphaherpesvirus 3 [9]
  pEC50: 5.70
[10]
  Ratio CC50/EC50: >29
[11]
  MCC at 72 h: ≥ 22.6 µM
Felid alphaherpesvirus 1
  pEC50: < 3.95
Human alphaherpesvirus 3 [12]
  pEC50: 5.41
Human betaherpesvirus 5 [13]
  pEC50: 5.00
[14]
  Ratio CC50/EC50: >11
[15]
  Activity: inactive
[16]
  Activity: inactive
[17]
  selectivity ratio: > 2.5
[18]
  Activity: inactive
[19]
  Ratio CC50/EC50: >94
Human respirovirus 3
  Activity: inactive
Human alphaherpesvirus 2
  pEC50: 4.63
Human betaherpesvirus 5 [21]
  pEC50: 4.92
[22]
  Activity: inactive
Human alphaherpesvirus 3 [23]
  pEC50: 5.92
Vaccinia virus
  pEC50: 4.35
Human alphaherpesvirus 1 [24]
  pEC50: 4.52
[25]
  Ratio CC50/EC50: >5
